Experimental data as given in patent US20090036388A1, “Compounds” (priority 2007, published 2009).
Values after ≈ are worked out from the molar mass of the structure shown.

Tests used:
[1] = tested on: Plasmodium falciparum strain W2; test: [3H] hypoxanthine incorporation IC50 assay, P. falciparum W2; assay type: cell-based; conditions: P. falciparum W2, 48 hours incubation
Protocol: (§1) Plasmodium falciparum strains 3D7A and W2.
(§2) The culture medium comprised RPMI 1640 with 25 mM HEPES, sodium bicarbonate and glutamine (GIBCO™ cat. ref.: 52400), supplemented with 10% of pooled human sera AB (Bioreclamation HMSRM-AB)) and HT supplement (0.15 mM hypoxanthine and 24 μM thymidine), (GIBCO™ cat. ref.: 41065). Human sera were decomplemented 30 min. at 56° C., aliquoted and stored frozen at −20° C. until use in this culture medium.
(§3) Red blood cells AB—stock suspensions were prepared from whole blood bags coming from incomplete blood donation, provided by the Spanish Red Cross (<25 days after sampling). This “whole blood” was aliquoted and stored at 4° C.
(§4) To prepare red blood cells for the assay, the whole blood was centrifuged and washed 3 times with RPMI without serum. The upper phase, containing white blood cells was removed. The washed red blood cells were kept as a 50% suspension in complete medium. The prepared cells were stored at 4° C. and were employed in the assay at any time up to 4 days after preparation.
(§5) Test compounds were dissolved at 2 mg/ml in 100% DMSO on the day of the assay. If necessary, complete dissolution was achieved by gentle heating (the mixture was heated at a temperature <37° C.) and sonication (sonication bath).
(§6) For IC50 determinations, 10 serial 2-fold dilutions were prepared in complete medium in the presence of a constant amount of DMSO. Any obvious signs of insolubility of the stock solutions in 100% DMSO or precipitation when these solutions were diluted in assay media, were recorded.
(§7) Plasmodium falciparum strains were maintained in complete medium at an hematocrit of 5% in continuous culture using a method adapted from Trager and Jensen (1, 2).
(§8) The parasitemia was calculated by counting the percentage of parasitized erythrocytes by optical microscopy. Thin films of blood were made every day from each culture flask, fixed with methanol and stained for 10 min. in Giemsa (Merck, cat. ref.: 1.09204) at 10% in buffered water pH 7.2. The glass slides were observed and counted with an optical microscope (Nikon, Eclipse E200) equipped with a 100× immersion oil objective.
(§9) The culture was maintained at an hematocrit of 5%, with a daily change of medium and was diluted when parasitemia had reached about 5%.
(§10) [^3H] Hypoxanthine incorporation assay was conducted using a method adapted from Desjardins et al. (3). The assays were performed in 96 wells flat bottom microplates.
(§11) 1. Serial dilutions of the test compounds (50 μl of a 5× solution/well) were deposited in duplicate. Compounds of this invention (Table 1) were tested in this assay. Chloroquine and Azithromycin were used as control compounds for each assay.
(§12) 3. [^3H]-Hypoxanthine (Amersham Biosciences, cat. ref.: TRK74) was added extemporaneously to the inoculum suspension at a concentration of 1 μCi/ml (equating to […]). 200 μl of the resulting suspension was distributed into each well (other than the control well H12 described below) leading to a final volume of 250 μl per well, at 1% of hematocrit and 0.4% of parasitemia/well.
(§13) 4. In each plate, 2 columns were reserved for control wells: • Column 11: Positive control wells: PRBCs with 0.2% DMSO—(i) to determine DMSO solvent effect on parasite growth (at a final concentration of 0.2%) and (ii) to compare with cultures treated with test compounds. • Column 12 (comprising wells A12-H12): • A12-D12—Background value wells: Uninfected RBCs—blank control to obtain the background reading from RBCs without parasites.
(§14) E12-G12—Solvent effect wells: PRBCs without DMSO—to determine DMSO solvent effect on PRBCs by comparing these wells with column 11 wells.
(§15) H12—Non-radioactive well: PRBCs with cold hypoxanthine—(i) to carry out a thin blood film to determine parasitemia value after incubation by microscopy and (ii) to ensure that the parasites have grown properly during the assay. […]

[2] = tested on: Plasmodium falciparum strain 3D7A; test: [3H] hypoxanthine incorporation IC50 assay, P. falciparum 3D7A; assay type: cell-based; conditions: 48 hours incubation; for IC50: Plasmodium falciparum
Protocol: as §1, §2, §3, §4, §5, §6, §7, §8, §9, §10, §11, §12, §13, §14, §15

Plasmodium falciparum = conditions: non-immune patients, as compared to controls; cited from earlier work
Plasmodium vivax = conditions: non-immune patients, as compared to controls; cited from earlier work
Plasmodium cynomolgi = conditions: rhesus monkey; cited from earlier work
Plasmodium berghei = conditions: cited from earlier work
[3] = tested on: Plasmodium yoelii nigeriensis; conditions: cited from earlier work

Row | Compound | IC50 [1] [µg/mL] | IC50 [2] [µg/mL] | also measured
1 | CC[C@H]1OC(=O)[C@H](C)[C@@H](O[C@H]2C[C@@](C)(OC)[C@@H](O)[C@H](C)O2)[C@H](C)[C@@H](O[C@@H]2O[C@H](C)C[C@H](N(C)C)[C@H]2OCCCNC(=O)CCCNc2ccnc3cc(Cl)ccc23)[C@](C)(O)C[C@@H](C)CN(C)[C@H](C)[C@@H](O)[C@]1(C)O [Example 1, 2′-O-[3-({4-[(7-chloro-4-quinolinyl)amino]butanoyl}amino)propyl]-9-deoxo-9a-methyl-9a-aza-9a-homoerythromycin A] | ≤ 0.1 | ≤ 0.1 | 
2 | CC[C@H]1OC(=O)[C@H](C)[C@@H](O)[C@H](C)[C@@H](O[C@@H]2O[C@H](C)C[C@H](N(C)C)[C@H]2OCCCNC(=O)CCCNc2ccnc3cc(Cl)ccc23)[C@](C)(O)C[C@@H](C)CN(C)[C@H](C)[C@@H](O)[C@]1(C)O [Example 2, 2′-O-[3-({4-[(7-chloro-4-quinolinyl)amino]butanoyl}amino)propyl]-3-O-decladinosyl-9-deoxo-9a-methyl-9a-aza-9a-homoerythromycin A] | 0.1 to 0.2 (≈ 0.112 to 0.224 µM) | 0.1 to 0.2 (≈ 0.112 to 0.224 µM) | 
3 | CC[C@H]1OC(=O)[C@H](C)[C@@H](O[C@H]2C[C@@](C)(OC)[C@@H](O)[C@H](C)O2)[C@H](C)[C@@H](O[C@@H]2O[C@H](C)C[C@H](N(C)C)[C@H]2OCCCNc2ccnc3cc(Cl)ccc23)[C@](C)(O)C[C@@H](C)CN(C)[C@H](C)[C@@H](O)[C@]1(C)O [Example 3, 2′-O-{3-[(7-Chloro-4-quinolinyl)amino]propyl}-9-deoxo-9a-methyl-9a-aza-9a-homoerythromycin A] | ≤ 0.1 | ≤ 0.1 | 
4 | CC[C@H]1OC(=O)[C@H](C)[C@@H](O)[C@H](C)[C@@H](O[C@@H]2O[C@H](C)C[C@H](N(C)C)[C@H]2OCCCNc2ccnc3cc(Cl)ccc23)[C@](C)(O)C[C@@H](C)CN(C)[C@H](C)[C@@H](OC(C)=O)[C@]1(C)O [Example 4, 11-O-Acetyl-2′-O-{3-[(7-Chloro-4-quinolinyl)amino]propyl}-3-O-decladinosyl-9-deoxo-9a-methyl-9a-aza-9a-homoerythromycin A] | ≤ 0.1 | ≤ 0.1 | 
5 | CC[C@H]1OC(=O)[C@H](C)[C@@H](O)[C@H](C)[C@@H](O[C@@H]2O[C@H](C)C[C@H](N(C)C)[C@H]2OCCCNc2ccnc3cc(Cl)ccc23)[C@](C)(O)C[C@@H](C)CN(C)[C@H](C)[C@@H](O)[C@]1(C)O [Example 5, 2′-O-{3-[(7-Chloro-4-quinolinyl)amino]propyl}-3-O-decladinosyl-9-deoxo-9a-methyl-9a-aza-9a-homoerythromycin A] | ≤ 0.1 | ≤ 0.1 | 
6 | CC[C@H]1OC(=O)[C@H](C)[C@@H](O[C@H]2C[C@@](C)(OC)[C@@H](O)[C@H](C)O2)[C@H](C)[C@@H](O[C@@H]2O[C@H](C)C[C@H](N(C)C)[C@H]2OCCCNc2ccnc3ccccc23)[C@](C)(O)C[C@@H](C)CN(C)[C@H](C)[C@@H](O)[C@]1(C)O [Example 6, 2′-O-{3-[(4-quinolinyl)amino]propyl}-9-deoxo-9a-methyl-9a-aza-9a-homoerythromycin A] | ≤ 0.1 | ≤ 0.1 | 
7 | CC[C@H]1OC(=O)[C@H](C)[C@@H](O[C@H]2C[C@@](C)(OC)[C@@H](O)[C@H](C)O2)[C@H](C)[C@@H](O[C@@H]2O[C@H](C)C[C@H](N(C)C)[C@H]2OCCCNC(=O)CNc2ccnc3cc(Cl)ccc23)[C@](C)(O)C[C@@H](C)CN(C)[C@H](C)[C@@H](O)[C@]1(C)O [Example 7, 2′-O-[3-({2-[(7-chloro-4-quinolinyl)amino]ethanoyl}amino)propyl]-9-deoxo-9a-methyl-9a-aza-9a-homoerythromycin A] | ≤ 0.1 | ≤ 0.1 | 
8 | CC[C@H]1OC(=O)[C@H](C)[C@@H](O)[C@H](C)[C@@H](O[C@@H]2O[C@H](C)C[C@H](N(C)C)[C@H]2OCCCNC(=O)CNc2ccnc3cc(Cl)ccc23)[C@](C)(O)C[C@@H](C)CN(C)[C@H](C)[C@@H](O)[C@]1(C)O [Example 8, 2′-O-[3-({2-[(7-chloro-4-quinolinyl)amino]ethanoyl}amino)propyl]-3-O-decladinosyl-9-deoxo-9a-methyl-9a-aza-9a-homoerythromycin A] | 0.1 to 0.2 (≈ 0.115 to 0.231 µM) | ≤ 0.1 | 
9 | CC[C@H]1OC(=O)[C@H](C)[C@@H](O[C@H]2C[C@@](C)(OC)[C@@H](O)[C@H](C)O2)[C@H](C)[C@@H](O[C@@H]2O[C@H](C)C[C@H](N(C)C)[C@H]2OCCCNC(=O)CNc2ccnc3ccccc23)[C@](C)(O)C[C@@H](C)CN(C)[C@H](C)[C@@H](O)[C@]1(C)O [Example 9, 2′-O-[3-({2-[(4-quinolinyl)amino]ethanoyl}amino)propyl]-9-deoxo-9a-methyl-9a-aza-9a-homoerythromycin A] | ≤ 0.1 | 0.1 to 0.2 (≈ 0.101 to 0.202 µM) | 
10 | CC[C@H]1OC(=O)[C@H](C)[C@@H](O)[C@H](C)[C@@H](O[C@@H]2O[C@H](C)C[C@H](N(C)C)[C@H]2OCCCNC(=O)CNc2ccnc3ccccc23)[C@](C)(O)C[C@@H](C)CN(C)[C@H](C)[C@@H](O)[C@]1(C)O [Example 10, 2′-O-[3-({2-[(4-quinolinyl)amino]ethanoyl}amino)propyl]-3-O-decladinosyl-9-deoxo-9a-methyl-9a-aza-9a-homoerythromycin A] | 0.2 to 1 (≈ 0.24 to 1.2 µM) | 1 to 2.5 (≈ 1.2 to 3 µM) | 
11 | CC[C@H]1OC(=O)[C@H](C)[C@@H](O[C@H]2C[C@@](C)(OC)[C@@H](O)[C@H](C)O2)[C@H](C)[C@@H](O[C@@H]2O[C@H](C)C[C@H](N(C)C)[C@H]2OCCC(=O)NCCNc2ccnc3cc(Cl)ccc23)[C@](C)(O)C[C@@H](C)CN(C)[C@H](C)[C@@H](O)[C@]1(C)O [Example 11, 2′-O-[3-({2-[(7-chloro-4-quinolinyl)amino]ethyl}amino)-3-oxopropyl]9-deoxo-9a-methyl—9a-aza-9a-homoerythromycin A] | ≤ 0.1 | ≤ 0.1 | 
12 | CC[C@H]1OC(=O)[C@H](C)[C@@H](O[C@H]2C[C@@](C)(OC)[C@@H](O)[C@H](C)O2)[C@H](C)[C@@H](O[C@@H]2O[C@H](C)C[C@H](N(C)C)[C@H]2OCCCNC(=O)CCCNc2ccnc3ccccc23)[C@](C)(O)C[C@@H](C)CN(C)[C@H](C)[C@@H](O)[C@]1(C)O [Example 12, 2′-O-[3-({4-[(4-quinolinyl)amino]butanoyl}amino)propyl]-9-deoxo-9a-methyl-9a-aza-9a-homoerythromycin A] | 0.1 to 0.2 (≈ 0.0982 to 0.196 µM) | 0.2 to 1 (≈ 0.196 to 0.982 µM) | 
13 | CC[C@H]1OC(=O)[C@H](C)[C@@H](O[C@H]2C[C@@](C)(OC)[C@@H](O)[C@H](C)O2)[C@H](C)[C@@H](O[C@@H]2O[C@H](C)C[C@H](N(C)C)[C@H]2O)[C@](C)(O)C[C@@H](C)CN(C)[C@H](C)[C@@H](O)[C@]1(C)O [azithromycin] | 2.5 to 3 (≈ 3.34 to 4.01 µM) |  | IC50 3D7A [2]: H, >H; prophylactic efficacy for Plasmodium falciparum (Plasmodium falciparum): 71.6%; prophylactic efficacy for Plasmodium vivax (Plasmodium vivax): 98.9%; efficacy in monkey model (Plasmodium cynomolgi): active
14 | midecamycinin |  |  | activity in mouse model (Plasmodium berghei): active; activity in mouse model [3]: active; efficacy in monkey model (Plasmodium cynomolgi): no efficacy
